The source of these data is patent publication US10239832B2, “N-(1-hydroxy-3-(pyrrolidinyl)propan-2-yl)pyrrolidine-3-carboxamide derivatives as glucosylceramide synthase inhibitors” (BIOMARIN PHARMACEUTICAL INC., priority 2013, dated 2019).

This test addresses T1, GCS (Canis lupus familiaris, UniProt A0A8I3MXG6).
T1 construct: endogenous in cells; host or cells: MDCK (Madin-Darby canine kidney) cells, whole-cell lysate
T1 sequence (A0A8I3MXG6 1-394): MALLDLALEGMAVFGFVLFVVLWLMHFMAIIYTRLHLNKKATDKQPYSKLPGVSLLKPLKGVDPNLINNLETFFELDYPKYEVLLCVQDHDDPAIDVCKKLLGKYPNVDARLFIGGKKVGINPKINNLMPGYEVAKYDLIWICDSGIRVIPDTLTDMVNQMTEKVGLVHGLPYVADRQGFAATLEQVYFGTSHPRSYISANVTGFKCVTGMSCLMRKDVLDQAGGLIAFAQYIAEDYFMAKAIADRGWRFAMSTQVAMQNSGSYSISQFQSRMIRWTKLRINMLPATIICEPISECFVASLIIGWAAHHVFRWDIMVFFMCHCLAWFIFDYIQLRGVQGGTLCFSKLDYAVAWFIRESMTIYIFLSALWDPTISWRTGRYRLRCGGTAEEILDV
Kind of test: GCS enzymatic assay (MDCK cell lysate, NBD-ceramide to glucosylceramide, LC/MS). The note with it: Table 2, the table does not say which of the assays; for IC50: class symbols A, B, C, read-out: Data Range (IC50 values); for Data Range (% inhibition): class symbols D, E, F, NA (not active). Format: biochemical, canine. In a few lines:
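Dog MDCK cell lysate served as enzyme source, with NBD-ceramide turned over to glucosylceramide and 0.1% DMSO as mock control. The reaction was stopped with acetonitrile. Both lipids were quantified by LC/MS/MS in ESI positive MRM mode against a tolbutamide internal standard, giving IC50 or percent inhibition.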

For `O=C(N[C@H](CN1CCCC1)[C@H](O)c1ccc(OC2COC2)c(Cl)c1)[C@@H]1CCN(c2ccc3cc(F)ccc3c2)C1` [Compound 117, (R)-N-((1R,2R)-1-(3-chloro-4-(oxetan-3-yloxy)phenyl)-1-hydroxy-3-(pyrrolidin-1-yl)propan-2-yl)-1-(6-fluoronaphthalen-2-yl)pyrrolidine-3-carboxamide], the concentration for half-maximal inhibition (IC50) was in the range of 1 to 30 nM. On the same count and under the same terms, the same measure for `O=C(N[C@H](CN1CCCC1)[C@H](O)c1cc(F)c2c(c1)OCCO2)[C@@H]1CCN(c2cccc(-c3ccc(F)cc3)n2)C1` [Compound 124, (R)-N-((1R,2R)-1-(8-fluoro-2,3-dihydrobenzo[b][1,4]dioxin-6-yl)-1-hydroxy-3-(pyrrolidin-1-yl)propan-2-yl)-1-(6-(4-fluorophenyl)pyridin-2-yl)pyrrolidine-3-carboxamide]: 1 to 30 nM. `O=C(N[C@H](CN1CCCC1)[C@H](O)c1ccc2c(c1)OCCO2)C1CCN(Cc2ccc(Cl)cc2)C1` (stereo partly shown) [Compound 15C]: the “Data Range (% inhibition)” value was “F (1-49% (or less than 50%))”. Regarding `Cc1cc(N2CC[C@@H](C(=O)N[C@H](CN3CCCC3)[C@H](O)c3ccc4c(c3)OCCO4)C2)cc(C)n1` [Compound 82, (R)-N-((1R,2R)-1-(2,3-dihydrobenzo[b][1,4]dioxin-6-yl)-1-hydroxy-3-(pyrrolidin-1-yl)propan-2-yl)-1-(2,6-dimethylpyridin-4-yl)pyrrolidine-3-carboxamide], the “Data Range (% inhibition)” value is recorded as “NA (not active—a negative value was generated for % inhibition)”. Consider `O=C(N[C@H](CN1CCCC1)[C@H](O)c1ccc(OC2CC2)c(F)c1)[C@H]1CCN(c2ccc(F)cc2)C1` [Compound 69A, (S)-N-((1R,2R)-1-(4-cyclopropoxy-3-fluorophenyl)-1-hydroxy-3-(pyrrolidin-1-yl)propan-2-yl)-1-(4-fluorophenyl)pyrrolidine-3-carboxamide], for which the “Data Range (% inhibition)” value is “F (1-49% (or less than 50%))”.

In the case of `O=C(N[C@H](CN1CCCC1)[C@H](O)c1cc(F)c2c(c1)OCCO2)[C@@H]1CCN(c2cccc(Oc3ccc(F)cc3)n2)C1` [Compound 116, (R)-N-((1R,2R)-1-(8-fluoro-2,3-dihydrobenzo[b][1,4]dioxin-6-yl)-1-hydroxy-3-(pyrrolidin-1-yl)propan-2-yl)-1-(6-(4-fluorophenoxy)pyridin-2-yl)pyrrolidine-3-carboxamide], the IC50 was 1 to 30 nM. Take `O=C(N[C@H](CN1CCCC1)[C@H](O)c1ccc2c(c1)OCCO2)[C@@H]1CCN(c2nccs2)C1` [Compound 17, (R)-N-((1R,2R)-1-(2,3-dihydrobenzo[b][1,4]dioxin-6-yl)-1-hydroxy-3-(pyrrolidin-1-yl)propan-2-yl)-1-(thiazol-2-yl)pyrrolidine-3-carboxamide]: the “Data Range (% inhibition)” value is on record as “E (50-74% (or less than 75%))”. With `O=C(N[C@H](CN1CCCC1)[C@H](O)c1ccc2c(c1)OCCO2)C1CCN(c2ccc3cc(F)ccc3c2Cl)C1` (stereo partly drawn) [Compound 88C, 1-(1-chloro-6-fluoronaphthalen-2-yl)-N-((1R,2R)-1-(2,3-dihydrobenzo[b][1,4]dioxin-6-yl)-1-hydroxy-3-(pyrrolidin-1-yl)propan-2-yl)pyrrolidine-3-carboxamide], the “Data Range (% inhibition)” value is “D (75-100%)”. Turning to `O=C(N[C@H](CN1CCCC1)[C@H](O)c1ccc(OC2CC2)c(Cl)c1)[C@@H]1CCN(c2ccc3cc(F)ccc3c2)C1` [Compound 84, (R)-N-((1R,2R)-1-(3-chloro-4-cyclopropoxyphenyl)-1-hydroxy-3-(pyrrolidin-1-yl)propan-2-yl)-1-(6-fluoronaphthalen-2-yl)pyrrolidine-3-carboxamide], the IC50 fell in the range of 1 to 30 nM. As for `O=C(N[C@H](CN1CCCC1)[C@H](O)c1ccc2c(c1)OCCO2)[C@@H]1CCN(c2ccnc(OC3CC3)c2)C1` [Compound 56, (R)-1-(2-cyclopropoxypyridin-4-yl)-N-((1R,2R)-1-(2,3-dihydrobenzo[b][1,4]dioxin-6-yl)-1-hydroxy-3-(pyrrolidin-1-yl)propan-2-yl)pyrrolidine-3-carboxamide], the “Data Range (% inhibition)” value is reported as “F (1-49% (or less than 50%))”. Regarding `O=C(N[C@H](CN1CCCC1)[C@H](O)c1ccc(OC2CCOCC2)c(Cl)c1)[C@@H]1CCN(c2ccc3ccccc3c2)C1` [Compound 94, (R)-N-((1R,2R)-1-(3-chloro-4-((tetrahydro-2H-pyran-4-yl)oxy)phenyl)-1-hydroxy-3-(pyrrolidin-1-yl)propan-2-yl)-1-(naphthalen-2-yl)pyrrolidine-3-carboxamide], the IC50 is 1 to 30 nM. On the same count and under the same terms, the result for `CC(C)Oc1ccc([C@@H](O)[C@@H](CN2CCCC2)NC(=O)[C@@H]2CCN(c3ccc(Cl)cc3)C2)cc1Cl` [Compound 23, (R)-N-((1R,2R)-1-(3-chloro-4-isopropoxyphenyl)-1-hydroxy-3-(pyrrolidin-1-yl)propan-2-yl)-1-(4-chlorophenyl)pyrrolidine-3-carboxamide] reads 1 to 30 nM. Turning to `O=C(N[C@H](CN1CCCC1)[C@H](O)c1ccc2c(c1)OCCO2)C1CCN(CC2(O)CCOCC2)C1` (stereo partly drawn) [Compound 5D, N-((1R,2R)-1-(2,3-dihydrobenzo[b][1,4]dioxin-6-yl)-1-hydroxy-3-(pyrrolidin-1-yl)propan-2-yl)-1-((4-hydroxytetrahydro-2H-pyran-4-yl)methyl)pyrrolidine-3-carboxamide], the “Data Range (% inhibition)” value is listed as “F (1-49% (or less than 50%))”. Consider `O=C(N[C@H](CN1CCCC1)[C@H](O)c1ccc2c(c1)OCCO2)C1CCN(c2ccc3cc(F)ccc3c2)C1` (stereo in doubt) [Compound 14, (S)-N-((1R,2R)-1-(2,3-dihydrobenzo[b][1,4]dioxin-6-yl)-1-hydroxy-3-(pyrrolidin-1-yl)propan-2-yl)-1-(6-fluoronaphthalen-2-yl)pyrrolidine-3-carboxamide], for which the IC50 lay in the range of 1 to 30 nM. Consider `O=C(N[C@H](CN1CCCC1)[C@H](O)c1ccc2c(c1)OCCO2)[C@H]1CCN(c2ccc3c(c2)CCCC3)C1` [Compound 80H, (S)-N-((1R,2R)-1-(2,3-dihydrobenzo[b][1,4]dioxin-6-yl)-1-hydroxy-3-(pyrrolidin-1-yl)propan-2-yl)-1-(5,6,7,8-tetrahydronaphthalen-2-yl)pyrrolidine-3-carboxamide], for which the IC50 was 1 to 30 nM. With `O=C(N[C@H](CN1CCCCC1)[C@H](O)c1ccc2c(c1)OCCO2)[C@H]1CCN(c2ccc(Cl)cc2)C1` [Compound 43E, (S)-1-(4-chlorophenyl)-N-((1R,2R)-1-(2,3-dihydrobenzo[b][1,4]dioxin-6-yl)-1-hydroxy-3-(piperidin-1-yl)propan-2-yl)pyrrolidine-3-carboxamide], the “Data Range (% inhibition)” value was “F (1-49% (or less than 50%))”. `CC(C)Oc1ccc(C(O)[C@@H](CN2CCCC2)NC(=O)[C@H]2CCN(c3ccc(F)cc3)C2)cn1` (stereo in doubt) [Compound 31B, (S)-1-(4-fluorophenyl)-N-((1S,2R)-1-hydroxy-1-(6-isopropoxypyridin-3-yl)-3-(pyrrolidin-1-yl)propan-2-yl)pyrrolidine-3-carboxamide]: the “Data Range (% inhibition)” value is on record as “E (50-74% (or less than 75%))”.

As for `O=C(N[C@H](CN1CCCC1)[C@H](O)c1ccc(OC2CC2)c(Cl)c1)[C@H]1CCN(c2ccc3cc(F)ccc3c2)C1` [Compound 84A, (S)-N-((1R,2R)-1-(3-chloro-4-cyclopropoxyphenyl)-1-hydroxy-3-(pyrrolidin-1-yl)propan-2-yl)-1-(6-fluoronaphthalen-2-yl)pyrrolidine-3-carboxamide], the “Data Range (% inhibition)” value is “F (1-49% (or less than 50%))”. For `O=C(N[C@H](CN1CCCC1)[C@H](O)c1ccc(OC2CCC2)c(Cl)c1)[C@@H]1CCN(c2ccc(Cl)cc2)C1` [Compound 140, (R)-N-((1R,2R)-1-(3-chloro-4-cyclobutoxyphenyl)-1-hydroxy-3-(pyrrolidin-1-yl)propan-2-yl)-1-(4-chlorophenyl)pyrrolidine-3-carboxamide], the IC50 is 1 to 30 nM. Take `O=C(N[C@H](CN1CCCC1)[C@H](O)c1ccc2c(c1)OCCO2)[C@@H]1CCN(c2ccc3cccnc3c2)C1` [Compound 106, (R)-N-((1R,2R)-1-(2,3-dihydrobenzo[b][1,4]dioxin-6-yl)-1-hydroxy-3-(pyrrolidin-1-yl)propan-2-yl)-1-(quinolin-7-yl)pyrrolidine-3-carboxamide]: the “Data Range (% inhibition)” value was “D (75-100%)”.

For the molecule `O=C(N[C@H](CN1CCCC1)[C@H](O)c1ccc2c(c1)OCCO2)C1CCN(c2ccc(Cl)cc2Cl)C1` (stereo in doubt) [Compound 12, (R)-1-(2,4-dichlorophenyl)-N-((1R,2R)-1-(2,3-dihydrobenzo[b][1,4]dioxin-6-yl)-1-hydroxy-3-(pyrrolidin-1-yl)propan-2-yl)pyrrolidine-3-carboxamide], the IC50 lay in the range of 1 to 30 nM. `O=C(N[C@H](CN1CCCC1)[C@H](O)c1cc(F)c2c(c1)OCCO2)[C@@H]1CCN(c2ccc3ccsc3c2)C1` [Compound 97, (R)-1-(benzo[b]thiophen-6-yl)-N-((1R,2R)-1-(8-fluoro-2,3-dihydrobenzo[b][1,4]dioxin-6-yl)-1-hydroxy-3-(pyrrolidin-1-yl)propan-2-yl)pyrrolidine-3-carboxamide]: the IC50 fell in the range of 1 to 30 nM.

By IC50 is commonly meant the midpoint of a concentration-inhibition curve.
